Pest or weed control data for 15 compounds are collected here from patent US20220046923A1, “HERBICIDAL CINNOLINIUM COMPOUNDS” (SYNGENTA CROP PROTECTION AG, priority 2018, published 2022).

Test in all cases: Post-emergence efficacy, glasshouse spray test
Common to all, as to type: in vivo

Assay [1] concerns Echinochloa crus-galli (ECHCG). The note with it: Echinochloa crus-galli, post-emergence, 312 h; application rate 1000 g/Ha; evaluated after 13 days; read-out: Control of weed species ECHCG after post-emergence application (100=total damage to plant; 0=no damage to plant). Put shortly:
(§1)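 Plants sown in standard soil were grown 14 days in a glasshouse (24/16 °C day/night, 14 h light, 65% humidity) and then sprayed post-emergence. Compound in acetone/IF50 emulsifier mix was diluted in 0.25% or 1% Empicol ESC70 + 1% ammonium sulphate. Damage was scored after 13 days (0 = none, 100 = total).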

The next assay has as its system Setaria faberi (SETFA). The following applies: Setaria faberi, post-emergence, 312 h; application rate 1000 g/Ha; evaluated after 13 days; read-out: Control of weed species SETFA after post-emergence application (100=total damage to plant; 0=no damage to plant). The method, boiled down:
as §1

Assay [2] relates to Euphorbia heterophylla (EPHHL). The note with it: Euphorbia heterophylla, post-emergence, 312 h; application rate 1000 g/Ha; evaluated after 13 days; read-out: Control of weed species EPHHL after post-emergence application (100=total damage to plant; 0=no damage to plant). The method, boiled down: as §1
Assay [3] relates to Digitaria sanguinalis (DIGSA). The note with it: Digitaria sanguinalis, post-emergence, 312 h; application rate 1000 g/Ha; evaluated after 13 days; read-out: Control of weed species DIGSA after post-emergence application (100=total damage to plant; 0=no damage to plant). Put shortly: as §1
The next assay deals with Eleusine indica (ELEIN). The note with it: Eleusine indica, post-emergence, 312 h; application rate 1000 g/Ha; evaluated after 13 days; read-out: Control of weed species ELEIN after post-emergence application (100=total damage to plant; 0=no damage to plant). The method, boiled down: as §1
Assay [4] relates to Ipomoea hederacea (IPOHE). The note with it: Ipomoea hederacea, post-emergence, 312 h; application rate 1000 g/Ha; evaluated after 13 days; read-out: Control of weed species IPOHE after post-emergence application (100=total damage to plant; 0=no damage to plant). Put shortly: as §1
In a further assay the test system is Lolium perenne (LOLPE). The following applies: Lolium perenne, post-emergence, 312 h; application rate 1000 g/Ha; evaluated after 13 days; read-out: Control of weed species LOLPE after post-emergence application (100=total damage to plant; 0=no damage to plant). The method, boiled down: as §1
The subject of assay [5] is Chenopodium album (CHEAL). The following applies: Chenopodium album, post-emergence, 312 h; application rate 1000 g/Ha; evaluated after 13 days; read-out: Control of weed species CHEAL after post-emergence application (100=total damage to plant; 0=no damage to plant). Put shortly: as §1
In assay [6] the test system is Amaranthus palmeri (AMAPA). The note with it: Amaranthus palmeri, post-emergence, 312 h; application rate 1000 g/Ha; evaluated after 13 days; read-out: Control of weed species AMAPA after post-emergence application (100=total damage to plant; 0=no damage to plant). Put shortly: as §1

Regarding `COC(=O)CC[n+]1cc(C)c2ccccc2n1` [Compound A63], the pest or weed control at 1000 g/ha in assay [1] amounted to 10%; in the assay with Setaria faberi (SETFA) it was 10%; in assay [2], 20%; in [3], 20%; with Eleusine indica (ELEIN), 40%; in assay [4], 10%. The pest or weed control at 1000 g/ha in the assay with Lolium perenne (LOLPE) was 30%; in assay [5], 50%; in [6], 40%.

For the compound `Cc1c[n+](CCC(=O)O)nc2ccccc12` [Compound A64], the pest or weed control at 1000 g/ha in [1] was found to be 40%; in the assay on Setaria faberi (SETFA), 30%; in assay [2], 70%; in assay [3], 50%; in the assay with Eleusine indica (ELEIN), 50%; in [4], 20%. Besides, the pest or weed control at 1000 g/ha in the assay on Lolium perenne (LOLPE) was 10%; in assay [5], 70%; in assay [6], 70%.

Regarding `O=C(O)CC[n+]1ccc2ccccc2n1` [Compound A65], the pest or weed control at 1000 g/ha in assay [1] came to 70%; with Setaria faberi (SETFA), 60%; in assay [2] it was 90%; in assay [3], 90%; with Eleusine indica (ELEIN), 90%; in assay [4] it was 60%. For the same compound, the values for the pest or weed control at 1000 g/ha (in the assay on Lolium perenne (LOLPE); in [5]; in [6]) were 40%, 80% and 80%, respectively.

On to `Cc1c[n+](CC(=O)O)nc2ccccc12` [Compound A66], for which the pest or weed control at 1000 g/ha stood at 0% in assay [1]; 0% in the assay on Setaria faberi (SETFA); 20% in assay [2]; 0% in assay [3]; 20% with Eleusine indica (ELEIN); 30% in [4]. Also, the pest or weed control at 1000 g/ha with Lolium perenne (LOLPE) was 0%; in [5], 60%; in assay [6], 20%.

In the case of `O=S(=O)([O-])CCC[n+]1ccc2ccccc2n1` [Compound A67], the pest or weed control at 1000 g/ha was 60% in [1]; 80% in the assay on Setaria faberi (SETFA); 70% in [2]; 80% in assay [3]; 80% with Eleusine indica (ELEIN); 80% in assay [4]. Besides, the pest or weed control at 1000 g/ha in the assay on Lolium perenne (LOLPE) worked out at 80%; in [5] it was 90%; in assay [6], 100%.

Take `COc1ccc2n[n+](CC(=O)[O-])ccc2c1` [Compound A68]: the pest or weed control at 1000 g/ha in [1] is 50%; in the assay with Setaria faberi (SETFA), 30%; in [2] it was 20%; in [3], 30%; with Eleusine indica (ELEIN), 20%; in assay [4], 20%. Further, the pest or weed control at 1000 g/ha amounted to 10% with Lolium perenne (LOLPE), 50% in [5] and 60% in [6].

As to `Cc1ccc2n[n+](CC(=O)[O-])ccc2c1` [Compound A69], the pest or weed control at 1000 g/ha in assay [1] came out at 40%; in the assay on Setaria faberi (SETFA) it was 30%; in assay [2], 40%; in [3], 30%; with Eleusine indica (ELEIN), 30%; in assay [4], 0%. In addition, the pest or weed control at 1000 g/ha came out at 0% with Lolium perenne (LOLPE), 0% in assay [5] and 30% in [6].

Consider `O=P(O)(O)CCC[n+]1ccc2ccccc2n1` [Compound A70], for which the pest or weed control at 1000 g/ha amounted to 40% in assay [1]; 60% in the assay with Setaria faberi (SETFA); 80% in assay [2]; 80% in assay [3]; 90% in the assay with Eleusine indica (ELEIN); 100% in [4]. Besides, the pest or weed control at 1000 g/ha in the assay with Lolium perenne (LOLPE) was determined as 40%; in assay [5], 90%; in [6], 80%.

Turning to `O=P([O-])(O)CC[n+]1ccc2ccccc2n1` [Compound A71], the pest or weed control at 1000 g/ha is 40% in assay [1]; 70% with Setaria faberi (SETFA); 90% in [2]; 80% in assay [3]; 70% in the assay with Eleusine indica (ELEIN); 40% in assay [4]. In addition, the results for the pest or weed control at 1000 g/ha (in the assay with Lolium perenne (LOLPE); in assay [5]; in [6]) were 30%, 100% and 70%, respectively.

`COP(=O)([O-])CCC[n+]1ccc2ccccc2n1` [Compound A72, 3-cinnolin-2-ium-2-ylpropyl(methoxy)phosphinate]: the pest or weed control at 1000 g/ha in [1] was 50%; in the assay with Setaria faberi (SETFA) it was 60%; in assay [2], 50%; in assay [3] it was 50%; with Eleusine indica (ELEIN) it was 70%; in assay [4] it was 100%. Further, the pest or weed control at 1000 g/ha in the assay with Lolium perenne (LOLPE) turned out to be 50%; in assay [5], 70%; in [6], 70%.

Take `O=P(O)(O)C[n+]1ccc2ccccc2n1` [Compound A73, cinnolin-2-ium-2-ylmethyl(hydroxy)phosphinate chloride]: the pest or weed control at 1000 g/ha in [1] turned out to be 10%; in the assay with Setaria faberi (SETFA), 0%; in assay [2] it was 10%; in [3] it was 10%; in the assay on Eleusine indica (ELEIN), 10%; in assay [4] it was 30%. The pest or weed control at 1000 g/ha worked out at 10% in the assay with Lolium perenne (LOLPE), 0% in [5] and 10% in assay [6].

As for `O=C([O-])C[C@H](O)C[n+]1ccc2ccccc2n1` [Compound A74, (3S)-4-cinnolin-2-ium-2-yl-3-hydroxy-butanoate], the pest or weed control at 1000 g/ha in assay [1] is 0%; in the assay on Setaria faberi (SETFA), 0%; in [2], 10%; in [3], 0%; in the assay on Eleusine indica (ELEIN) it was 0%; in [4], 10%. Also, the pest or weed control at 1000 g/ha (in the assay on Lolium perenne (LOLPE); in [5]; in [6]) was 0% throughout.

`Cc1cc2ccccc2n[n+]1CCOS(=O)(=O)[O-]` [Compound A75]: the pest or weed control at 1000 g/ha in [1] is 30%; in the assay on Setaria faberi (SETFA), 30%; in assay [2] it was 40%; in [3], 70%; with Eleusine indica (ELEIN) it was 80%; in assay [4], 30%. In addition, the pest or weed control at 1000 g/ha in the assay with Lolium perenne (LOLPE) is 20%; in [5] it was 90%; in assay [6], 100%.

As to `Cc1cc2ccccc2n[n+]1CCCS(=O)(=O)[O-]` [Compound A76], the pest or weed control at 1000 g/ha in [1] is 60%; with Setaria faberi (SETFA), 60%; in assay [2] it was 50%; in assay [3], 60%; in the assay on Eleusine indica (ELEIN), 60%; in assay [4], 40%. Besides, the pest or weed control at 1000 g/ha was determined as 30% in the assay with Lolium perenne (LOLPE), 60% in assay [5] and 60% in assay [6].

For `Cc1cc2ccccc2n[n+]1CCS(=O)(=O)[O-]` [Compound A77, 2-(3-methylcinnolin-2-ium-2-yl)ethanesulfonate], the pest or weed control at 1000 g/ha in [1] was 30%; in the assay with Setaria faberi (SETFA), 30%; in assay [2], 90%; in assay [3] it was 90%; in the assay on Eleusine indica (ELEIN) it was 90%; in [4], 80%. Moreover, the pest or weed control at 1000 g/ha worked out at 40% in the assay on Lolium perenne (LOLPE), 100% in [5] and 100% in assay [6].
